Experimental data: patent publication US20100311726A1, “REDUCTION OF BETA-AMYLOID LEVELS BY TREATMENT WITH THE SMALL MOLECULE DIFFERENTIATION-INDUCING FACTOR” (priority 2007, published 2010)
“Also recorded” adds a separate entry of the source.

What was measured:
[1] = test system: CHO cells stably expressing human wild type APP^751 (CHO-7W); test: Cell proliferation assay in APP-expressing CHO cells; format: cell-based, Chinese Hamster
Text: For proliferation assays, 1×10^4 cells were deposited into 24-well plates and treated with vehicle (ethanol or DMSO) or with various amounts of DIF-1 or DIF-3 for a period of 4 days. Cells were harvested after each day by trypsin/EDTA treatment, stained with an equal volume of 0.05% Trypan blue and enumerated in triplicate twice using a haemocytometer. Dead cells are stained blue, but live cells with intact cell membranes are not coloured. Data represents the mean cell number±the standard deviation for at least 3 separate experiments.
The levels of secreted Aβ from CHO-7W cells stably overexpressing APP^751 and CHO-CAB cells that overexpress APP^751 and human BACE1 was quantified by ELISA and viewed by western blot using the monoclonal anti-APP antibody (6E10) that recognizes residues 1-17 of Aβ. […] Since DIF-1 exerts a cytostatic effect, the cell number was counted for all treatments upon removal of the conditioned media and used to normalize the levels of Aβ. […] The concentration of Aβ40 and Aβ42 was subsequently detected in triplicate using the β-Amyloid 1-40 or 1-42 Colorimetric ELISA kit (Biosource International, Inc.) according to the manufacturer's instructions.
Cells seeded on a 6-well plate were incubated with various concentrations of DIF-1. Cells were harvested by the trypsin/EDTA treatment at the times indicated and counted with a haemocytometer. […]

APP = APP processing (mature APP, αCTF, βCTF) by western blot; format: cell-based, human
Protocol: Total protein was collected in RIPA buffer plus protease inhibitors on ice and briefly sonicated. They lysate was centrifuged at 14,000 rpm for 15 minutes. […] After washing, the blots were probed with a polyclonal HRP-tagged secondary Ab (1:5000) for 1 hour at room temperature then visualized.
A second possibility is that DIF-1 potentiates the activity of y-secretase and processing of αCTFs and βCTFs. To assess this latter possibility, we examined the effect of DIF-1 in the presence of DAPT, a potent γ-secretase inhibitor. Even numbers of CHO-7W cells were plated in 6-well dishes and allowed to grow overnight. The next day, the media was removed and replaced with control media (2 ml) or media containing DAPT, DIF-1 or DAPT and DIF-1. […] After washing, blots were probed with HRP-conjugated secondary antibodies (1:5000) for 1 hour at room temperature. […] It would appear that the mechanism of DIF-1 on APP metabolism is not likely to involve γ-secretase activity, but might impact on either BACE1 levels or activity.
To evaluate this probability, we treated CHO-CAB cells that overexpress human APP^751 and human BACE1 with 30 μM of DIF-1. More specifically, even numbers of CHO-CAB cells were plated in 6-well dishes and allowed to grow overnight. The next day, the media was removed and replaced with control media (2 ml) or media containing DAPT, DIF-1 or DAPT and DIF-1. […] After washing, blots were probed with HRP-conjugated secondary antibodies (1:5000) for 1 hour at room temperature. Each treatment is shown above the blot. […] It would appear that DIF-1 has a greater effect on APP maturation in CHO-CAB cells. Longer exposures reveal the presence of mature APP bands in DIF-1 treated cells.
Next dose-dependent effects of DIF-1 on APP processing were examined. Even numbers of CHO-CAB cells were plated in 6-well dishes and allowed to grow overnight. The next day, cells were treated overnight with either vehicle or increasing concentrations of DIF-1 (5-30 μM).

CCCCCC(=O)c1c(O)c(Cl)c(OC)c(Cl)c1O [DIF-1, 1-[3,5-dichloro-2,6-dihydroxy-4-methoxyphenyl]-1-hexanone]
total cell number of vehicle treated cells higher than DIF-1 treated cells ([1]; 25 μM, after 20 hours, CHO-7W and CHO-CAB): ~10% | antiproliferative effect in CHO-7W compared to naïve cells (value in brackets, quantity not named) ([1]; CHO-7W): 30.6%±1.3 | APP maturation and αCTF and βCTF levels (APP; CHO-7W, 30 μM DIF-1 alone): significant decrease in APP maturation and both αCTF and βCTF production; also recorded: significant decreases in both αCTF and βCTF levels | αCTF and βCTF levels, simultaneous treatment with DAPT (APP; CHO-7W, 30 μM DIF-1 plus 250 nM DAPT): increased, but not to the level seen with DAPT alone | effect on APP metabolism with BACE1 overexpression (APP; CHO-CAB, 30 μM): did not repress the effects of DIF-1 on APP metabolism | dose dependence of αCTF and βCTF reduction (APP; CHO-CAB, 5-30 μM): reduced both αCTFs and βCTFs in a dose-dependent manner | concentration required to have an effect on mature APP levels (APP; CHO-CAB, 5-30 μM overnight): ~20 µM
